In patent US20260284018A1, “DUAL INHIBITORS OF DYRK1A AND 5-HT2 FOR TREATING A BRAIN DISORDER” (THE REGENTS OF THE UNIVERSITY OF CALIFORNIA, priority 2023, published 2026):

Key:
Test in all cases: KINOMEscan scanEDGE
Type in all cases: binding
Conditions in all cases: read-out: Percent Control
[1] = target: T1, VEGFR2 (Homo sapiens, UniProt P35968)
T1 construct: purchased Eurofins DiscoverX KINOMEscan scanEDGE
Method: (§1) Kinome Scan. Compound HTW_A_8 fumarate was screened against 97 kinases at a single concentration of 10 μM at Eurofins DiscoverX using their KINOMEscan™ scanEDGE assay. The results are reported as the % activity relative to DMSO control, where lower values indicate higher affinity. See Table 1 for the full kinome profile.

[2] = target: T2, PDGFRB (Homo sapiens, UniProt P09619)
T2 construct: purchased Eurofins DiscoverX (KINOMEscan scanEDGE service)
Method: as §1

[3] = target: T3, BRAF (Homo sapiens, UniProt P15056)
T3 construct: purchased Eurofins DiscoverX
Method: as §1

[4] = target: T4, TGFBR1 (Homo sapiens, UniProt P36897)
T4 construct: purchased Eurofins DiscoverX KINOMEscan scanEDGE
Method: as §1

[5] = target: T5, JAK3(JH1domain-catalytic) (Homo sapiens, UniProt P52333)
T5 construct: JAK3(JH1domain-catalytic); purchased Eurofins DiscoverX
Method: as §1

[6] = target: T6, MEK1 (Homo sapiens, UniProt Q02750)
T6 construct: purchased Eurofins DiscoverX (KINOMEscan scanEDGE service)
Method: as §1

[7] = target: T7, KIT(V559D, T670I) (Homo sapiens, UniProt P10721, T670I/V559D)
T7 construct: purchased Eurofins DiscoverX
Method: as §1

[8] = target: T8, AURKA (Homo sapiens, UniProt O14965)
T8 construct: purchased Eurofins DiscoverX
Method: as §1

[9] = target: T9, PIM3 (Homo sapiens, UniProt Q86V86)
T9 construct: purchased Eurofins DiscoverX (KINOMEscan scanEDGE service)
Method: as §1

[10] = target: T10, PIM2 (Homo sapiens, UniProt Q9P1W9)
T10 construct: purchased Eurofins DiscoverX (KINOMEscan scanEDGE service)
Method: as §1

[11] = target: T11, AKT2 (Homo sapiens, UniProt P31751)
T11 construct: purchased Eurofins DiscoverX
Method: as §1

[12] = target: T12, AURKB (Homo sapiens, UniProt Q96GD4)
T12 construct: purchased Eurofins DiscoverX
Method: as §1

[13] = target: T13, CDK11 (Homo sapiens, UniProt Q9BWU1)
T13 construct: purchased Eurofins DiscoverX
Method: as §1

[14] = target: T14, ROCK2 (Homo sapiens, UniProt O75116)
T14 construct: purchased Eurofins DiscoverX KINOMEscan scanEDGE
Method: as §1

[15] = target: T15, FLT3 (Homo sapiens, UniProt P36888)
T15 construct: purchased Eurofins DiscoverX
Method: as §1

[16] = target: T16, PRKCE (Homo sapiens, UniProt Q02156)
T16 construct: purchased Eurofins DiscoverX KINOMEscan scanEDGE
Method: as §1

[17] = target: T17, ZAP70 (Homo sapiens, UniProt P43403)
T17 construct: purchased Eurofins DiscoverX KINOMEscan scanEDGE
Method: as §1

[18] = target: T18, SRPK3 (Homo sapiens, UniProt Q9UPE1)
T18 construct: purchased Eurofins DiscoverX KINOMEscan scanEDGE
Method: as §1

[19] = target: T19, RAF1 (Homo sapiens, UniProt P04049)
T19 construct: purchased Eurofins DiscoverX KINOMEscan scanEDGE
Method: as §1

[20] = target: T20, MARK3 (Homo sapiens, UniProt P27448)
T20 construct: purchased Eurofins DiscoverX (KINOMEscan scanEDGE service)
Method: as §1

[21] = target: T21, AKT1 (Homo sapiens, UniProt P31749)
T21 construct: purchased Eurofins DiscoverX
Method: as §1

[22] = target: T22, PDGFRA (Homo sapiens, UniProt P16234)
T22 construct: purchased Eurofins DiscoverX (KINOMEscan scanEDGE service)
Method: as §1

[23] = target: T23, FAK (Homo sapiens, UniProt Q05397)
T23 construct: purchased Eurofins DiscoverX
Method: as §1

[24] = target: T24, ABL1(E255K)-phosphorylated (Homo sapiens, UniProt P00519, E255K)
T24 construct: purchased Eurofins DiscoverX
Method: as §1

[25] = target: T25, CSNK1G2 (Homo sapiens, UniProt P78368)
T25 construct: purchased Eurofins DiscoverX
Method: as §1

[26] = target: T26, ERK1 (Homo sapiens, UniProt P27361)
T26 construct: purchased Eurofins DiscoverX
Method: as §1

[27] = target: T27, IGF1R (Homo sapiens, UniProt P08069)
T27 construct: purchased Eurofins DiscoverX
Method: as §1

[28] = target: T28, BTK (Homo sapiens, UniProt Q06187)
T28 construct: purchased Eurofins DiscoverX
Method: as §1

[29] = target: T29, ERBB2 (Homo sapiens, UniProt P04626)
T29 construct: purchased Eurofins DiscoverX
Method: as §1

[30] = target: T30, GSK3B (Homo sapiens, UniProt P49841)
T30 construct: purchased Eurofins DiscoverX
Method: as §1

[31] = target: T31, INSR (Homo sapiens, UniProt P06213)
T31 construct: purchased Eurofins DiscoverX
Method: as §1

[32] = target: T32, EGFR(L858R) (Homo sapiens, UniProt P00533, L858R)
T32 construct: purchased Eurofins DiscoverX
Method: as §1

[33] = target: T33, MLK1 (Homo sapiens, UniProt P80192)
T33 construct: purchased Eurofins DiscoverX (KINOMEscan scanEDGE service)
Method: as §1

[34] = target: T34, PLK4 (Homo sapiens, UniProt O00444)
T34 construct: purchased Eurofins DiscoverX KINOMEscan scanEDGE
Method: as §1

[35] = target: T35, KIT(D816V) (Homo sapiens, UniProt P10721, D816V)
T35 construct: purchased Eurofins DiscoverX
Method: as §1

[36] = target: T36, BMPR2 (Homo sapiens, UniProt Q13873)
T36 construct: purchased Eurofins DiscoverX
Method: as §1

[37] = target: T37, ABL1(T315I)-phosphorylated (Homo sapiens, UniProt P00519, T315I)
T37 construct: purchased Eurofins DiscoverX
Method: as §1

[38] = target: T38, PAK2 (Homo sapiens, UniProt Q13177)
T38 construct: purchased Eurofins DiscoverX (KINOMEscan scanEDGE service)
Method: as §1

T22 sequence (P16234 24-1089): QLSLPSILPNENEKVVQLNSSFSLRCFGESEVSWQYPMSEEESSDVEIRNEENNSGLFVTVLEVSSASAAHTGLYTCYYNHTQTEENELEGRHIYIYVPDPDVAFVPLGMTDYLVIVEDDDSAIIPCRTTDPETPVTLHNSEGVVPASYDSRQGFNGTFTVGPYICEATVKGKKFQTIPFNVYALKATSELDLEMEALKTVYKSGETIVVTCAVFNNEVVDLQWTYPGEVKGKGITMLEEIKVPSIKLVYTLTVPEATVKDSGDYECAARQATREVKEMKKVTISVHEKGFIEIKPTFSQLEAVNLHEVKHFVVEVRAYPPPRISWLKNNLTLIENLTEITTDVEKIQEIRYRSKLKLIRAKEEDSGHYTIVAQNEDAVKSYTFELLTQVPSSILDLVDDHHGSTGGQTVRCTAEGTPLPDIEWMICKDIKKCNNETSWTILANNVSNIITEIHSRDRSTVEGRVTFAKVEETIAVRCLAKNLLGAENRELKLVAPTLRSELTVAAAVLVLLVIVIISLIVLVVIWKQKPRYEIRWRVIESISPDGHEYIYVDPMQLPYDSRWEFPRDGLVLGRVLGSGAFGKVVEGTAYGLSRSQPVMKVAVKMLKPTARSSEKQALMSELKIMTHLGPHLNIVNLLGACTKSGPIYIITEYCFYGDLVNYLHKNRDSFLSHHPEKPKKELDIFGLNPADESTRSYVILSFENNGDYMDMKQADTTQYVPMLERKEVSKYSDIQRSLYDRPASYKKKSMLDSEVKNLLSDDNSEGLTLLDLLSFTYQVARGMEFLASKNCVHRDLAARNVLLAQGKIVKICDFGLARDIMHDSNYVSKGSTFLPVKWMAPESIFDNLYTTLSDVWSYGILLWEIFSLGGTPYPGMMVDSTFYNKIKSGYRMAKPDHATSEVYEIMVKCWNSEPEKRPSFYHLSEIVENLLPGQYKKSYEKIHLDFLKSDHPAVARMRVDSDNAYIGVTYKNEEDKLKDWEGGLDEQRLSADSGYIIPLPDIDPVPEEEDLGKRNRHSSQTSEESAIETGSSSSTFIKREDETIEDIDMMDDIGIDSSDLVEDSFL
T27 sequence (P08069 31-1367): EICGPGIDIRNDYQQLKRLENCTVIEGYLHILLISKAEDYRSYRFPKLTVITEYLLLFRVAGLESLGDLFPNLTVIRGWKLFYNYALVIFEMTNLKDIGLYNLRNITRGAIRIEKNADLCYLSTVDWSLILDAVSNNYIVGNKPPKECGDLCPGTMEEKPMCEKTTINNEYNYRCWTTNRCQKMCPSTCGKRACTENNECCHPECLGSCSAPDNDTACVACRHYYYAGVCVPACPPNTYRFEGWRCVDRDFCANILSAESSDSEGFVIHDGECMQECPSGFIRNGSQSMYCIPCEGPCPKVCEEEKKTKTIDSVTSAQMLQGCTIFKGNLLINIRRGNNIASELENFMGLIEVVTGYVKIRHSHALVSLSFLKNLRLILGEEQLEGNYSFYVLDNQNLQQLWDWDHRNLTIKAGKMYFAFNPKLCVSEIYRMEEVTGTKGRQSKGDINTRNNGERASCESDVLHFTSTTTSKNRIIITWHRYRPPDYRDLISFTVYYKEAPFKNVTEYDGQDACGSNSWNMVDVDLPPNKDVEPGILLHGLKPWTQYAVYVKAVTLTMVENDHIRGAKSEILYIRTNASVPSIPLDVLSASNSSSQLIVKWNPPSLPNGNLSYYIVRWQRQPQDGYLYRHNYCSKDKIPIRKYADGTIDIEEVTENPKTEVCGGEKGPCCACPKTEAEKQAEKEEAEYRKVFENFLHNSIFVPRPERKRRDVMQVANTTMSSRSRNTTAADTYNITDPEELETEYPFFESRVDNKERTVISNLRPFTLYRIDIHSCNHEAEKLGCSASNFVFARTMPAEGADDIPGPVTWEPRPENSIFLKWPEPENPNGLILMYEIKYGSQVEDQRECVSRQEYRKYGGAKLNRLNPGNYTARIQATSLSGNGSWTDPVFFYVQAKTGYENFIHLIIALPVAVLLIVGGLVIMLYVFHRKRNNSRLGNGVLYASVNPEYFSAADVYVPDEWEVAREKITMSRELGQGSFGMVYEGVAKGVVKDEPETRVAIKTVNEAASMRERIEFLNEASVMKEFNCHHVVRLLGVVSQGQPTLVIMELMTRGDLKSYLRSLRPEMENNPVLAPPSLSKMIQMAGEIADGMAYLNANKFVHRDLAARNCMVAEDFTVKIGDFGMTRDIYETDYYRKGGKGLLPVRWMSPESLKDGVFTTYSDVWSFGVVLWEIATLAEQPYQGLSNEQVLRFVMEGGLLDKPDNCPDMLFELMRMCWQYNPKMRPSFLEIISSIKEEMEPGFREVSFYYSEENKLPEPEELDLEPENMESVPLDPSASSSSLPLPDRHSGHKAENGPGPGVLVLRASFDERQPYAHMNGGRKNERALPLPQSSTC
T4 sequence (P36897 34-503): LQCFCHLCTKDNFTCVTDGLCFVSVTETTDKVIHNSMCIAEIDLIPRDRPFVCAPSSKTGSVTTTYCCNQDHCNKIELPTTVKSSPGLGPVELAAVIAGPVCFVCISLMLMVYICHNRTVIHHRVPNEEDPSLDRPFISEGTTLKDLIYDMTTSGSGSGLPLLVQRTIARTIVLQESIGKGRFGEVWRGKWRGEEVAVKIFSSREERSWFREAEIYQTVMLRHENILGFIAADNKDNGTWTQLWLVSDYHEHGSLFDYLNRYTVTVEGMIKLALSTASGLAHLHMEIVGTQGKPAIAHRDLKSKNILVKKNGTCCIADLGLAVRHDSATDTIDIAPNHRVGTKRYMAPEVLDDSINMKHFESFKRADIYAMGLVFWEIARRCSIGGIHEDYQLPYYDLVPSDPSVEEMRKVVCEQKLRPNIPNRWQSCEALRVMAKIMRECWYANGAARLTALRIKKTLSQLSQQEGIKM
T12 sequence (Q96GD4 whole entry): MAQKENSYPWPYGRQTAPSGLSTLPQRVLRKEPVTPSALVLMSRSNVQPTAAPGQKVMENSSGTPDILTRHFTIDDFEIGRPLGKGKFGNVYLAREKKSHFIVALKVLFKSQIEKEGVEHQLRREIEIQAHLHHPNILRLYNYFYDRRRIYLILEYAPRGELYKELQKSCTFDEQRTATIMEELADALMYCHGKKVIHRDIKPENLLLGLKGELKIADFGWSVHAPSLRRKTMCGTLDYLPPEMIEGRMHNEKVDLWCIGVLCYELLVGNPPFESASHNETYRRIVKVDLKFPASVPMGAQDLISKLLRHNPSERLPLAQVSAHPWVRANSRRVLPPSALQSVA
T29 sequence (P04626 23-1255): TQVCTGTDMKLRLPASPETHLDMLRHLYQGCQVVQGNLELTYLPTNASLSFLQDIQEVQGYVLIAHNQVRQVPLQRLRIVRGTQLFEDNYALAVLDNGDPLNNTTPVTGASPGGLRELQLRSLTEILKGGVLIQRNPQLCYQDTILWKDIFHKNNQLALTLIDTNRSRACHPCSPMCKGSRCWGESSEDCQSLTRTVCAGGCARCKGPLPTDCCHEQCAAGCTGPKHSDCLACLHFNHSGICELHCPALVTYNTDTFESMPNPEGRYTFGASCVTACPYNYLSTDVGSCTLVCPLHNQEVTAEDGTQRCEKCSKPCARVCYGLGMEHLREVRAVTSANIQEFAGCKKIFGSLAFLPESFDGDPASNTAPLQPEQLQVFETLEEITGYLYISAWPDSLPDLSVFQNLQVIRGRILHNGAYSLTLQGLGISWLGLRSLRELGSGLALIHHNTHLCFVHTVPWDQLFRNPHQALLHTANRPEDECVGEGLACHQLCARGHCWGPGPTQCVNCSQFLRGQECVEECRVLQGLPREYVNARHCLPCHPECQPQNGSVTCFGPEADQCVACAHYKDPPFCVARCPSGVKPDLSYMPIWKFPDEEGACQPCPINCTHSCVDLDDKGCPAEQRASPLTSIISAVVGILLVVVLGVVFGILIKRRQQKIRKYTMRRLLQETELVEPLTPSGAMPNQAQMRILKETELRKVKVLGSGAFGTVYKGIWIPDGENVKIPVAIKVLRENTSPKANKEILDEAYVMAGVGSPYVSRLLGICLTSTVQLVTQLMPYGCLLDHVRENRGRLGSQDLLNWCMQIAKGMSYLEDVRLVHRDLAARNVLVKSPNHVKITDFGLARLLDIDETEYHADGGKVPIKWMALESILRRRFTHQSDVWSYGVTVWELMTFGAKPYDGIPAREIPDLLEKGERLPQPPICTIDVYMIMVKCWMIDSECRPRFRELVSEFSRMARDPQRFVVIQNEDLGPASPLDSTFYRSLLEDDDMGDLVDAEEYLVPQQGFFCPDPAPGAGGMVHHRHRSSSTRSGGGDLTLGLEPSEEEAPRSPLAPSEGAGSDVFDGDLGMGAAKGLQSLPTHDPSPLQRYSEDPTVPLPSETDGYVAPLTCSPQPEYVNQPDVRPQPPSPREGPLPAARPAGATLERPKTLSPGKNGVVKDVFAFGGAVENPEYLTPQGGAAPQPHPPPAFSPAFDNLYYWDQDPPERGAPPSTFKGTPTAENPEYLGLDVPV
T5 sequence (P52333 822-1111 limits assumed): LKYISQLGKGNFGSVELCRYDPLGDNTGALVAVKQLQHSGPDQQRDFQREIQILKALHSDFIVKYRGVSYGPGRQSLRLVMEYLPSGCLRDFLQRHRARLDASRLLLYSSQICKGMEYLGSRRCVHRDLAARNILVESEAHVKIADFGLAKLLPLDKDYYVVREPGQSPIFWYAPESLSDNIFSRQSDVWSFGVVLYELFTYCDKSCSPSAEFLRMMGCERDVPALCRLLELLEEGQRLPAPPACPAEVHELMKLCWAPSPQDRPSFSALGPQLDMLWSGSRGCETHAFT

Question: With `COc1ccc2c3ccnc(C)c3n(CCN(C)C)c2c1.O=C(O)/C=C/C(=O)O` [HTW_A_8 fumarate, 2-(7-methoxy-1-methyl-9H-pyrido[3,4-b]indol-9-yl)-N,N-dimethylethan-1-amine Fumarate Salt (2:3)] as the compound, how does the remaining binding at 10 µM [1] read?
Answer: 100%

Question: What about the remaining binding at 10 µM [2] of the same compound?
Answer: 100%

Question: And the remaining binding at 10 µM [3]?
Answer: 100%

Question: What about the remaining binding at 10 µM [4] of the same compound?
Answer: 90%

Question: What about the remaining binding at 10 µM [5] of the same compound?
Answer: 100%

Question: And the remaining binding at 10 µM [6]?
Answer: 87%

Question: And the remaining binding at 10 µM [7]?
Answer: 89%

Question: What about the remaining binding at 10 µM [8] of the same compound?
Answer: 100%

Question: What about the remaining binding at 10 µM [9] of the same compound?
Answer: 96%

Question: What about the remaining binding at 10 µM [10] of the same compound?
Answer: 84%

Question: What about the remaining binding at 10 µM [11] of the same compound?
Answer: 100%

Question: And the remaining binding at 10 µM [12]?
Answer: 100%

Question: What about the remaining binding at 10 µM [13] of the same compound?
Answer: 95%

Question: What about the remaining binding at 10 µM [14] of the same compound?
Answer: 73%

Question: What about the remaining binding at 10 µM [15] of the same compound?
Answer: 85%

Question: What about the remaining binding at 10 µM [16] of the same compound?
Answer: 100%

Question: What about the remaining binding at 10 µM [17] of the same compound?
Answer: 93%

Question: What about the remaining binding at 10 µM [18] of the same compound?
Answer: 81%

Question: And the remaining binding at 10 µM [19]?
Answer: 93%

Question: And the remaining binding at 10 µM [20]?
Answer: 100%

Question: And the remaining binding at 10 µM [21]?
Answer: 96%

Question: And the remaining binding at 10 µM [22]?
Answer: 100%

Question: And the remaining binding at 10 µM [23]?
Answer: 100%

Question: What about the remaining binding at 10 µM [24] of the same compound?
Answer: 79%

Question: And the remaining binding at 10 µM [25]?
Answer: 86%

Question: And the remaining binding at 10 µM [26]?
Answer: 85%

Question: And the remaining binding at 10 µM [27]?
Answer: 85%

Question: What about the remaining binding at 10 µM [28] of the same compound?
Answer: 100%

Question: And the remaining binding at 10 µM [29]?
Answer: 100%

Question: What about the remaining binding at 10 µM [30] of the same compound?
Answer: 100%

Question: And the remaining binding at 10 µM [31]?
Answer: 100%

Question: And the remaining binding at 10 µM [32]?
Answer: 87%

Question: What about the remaining binding at 10 µM [33] of the same compound?
Answer: 91%

Question: And the remaining binding at 10 µM [34]?
Answer: 81%

Question: What about the remaining binding at 10 µM [35] of the same compound?
Answer: 100%

Question: What about the remaining binding at 10 µM [36] of the same compound?
Answer: 100%

Question: What about the remaining binding at 10 µM [37] of the same compound?
Answer: 100%

Question: What about the remaining binding at 10 µM [38] of the same compound?
Answer: 96%
